# Data published in patent US9539237B2, “Compositions and methods for drug-sensitization or inhibition of a cancer cell” (The Texas A&M University System, priority 2012, dated 2017).
# Where two headings read alike, the source gives them in different places. Numbered stars: 1 amine (or outer) side, 2 acyl side, 3 side chain; on linkers, the order of the positions; unused ones are H or OH. Bridge positions count the residues as written; N and C are the ends. Square brackets hold non-standard residues; d marks the D form. Peptide text beside a SMILES is read from it. I, II: the chains in the order shown. Actinocin(9to1) = Cc1c2oc3c(C)ccc(C(=O)[*:1])c3nc-2c(C(=O)[*:2])c(N)c1=O; NMeV = CN[C@H](C(=O)O)C(C)C; Sar = CNCC(=O)O
# Assays:
# [1] = system: multi-drug-resistant breast cancer cell line MDA-MB-231; assay: Cell growth assay on MDA-MB-231 cells; type: cell-based
# Source text: (§1) In these experiments, the following cell lines were used: CHOP-resistant NHL cell line G3, CHOP-sensitive NHL cell line CRL2631, the multi-drug resistant sarcoma cell line MES-SA-Dx5; multi-drug-resistant breast cancer cell line MDA-MB-231, multi-drug resistant ovarian carcinoma cell line SK-OV3, multi-drug resistant ovarian cancer cell line NCI/ADR-RES, drug-sensitive ovarian cancer cell line OVCAR-5, and multi-drug resistant ovarian cancer cell line OVCAR-3.
# (§2) Additional cell lines used include: ovarian cancer OVCAR-8. T lymphoblastoid leukemia MOLT-4, dexamethasone-resistant multiple myeloma MM.1R, myeloid leukemia cells HL-60, osteosarcoma cells U-2 OS, and myeloma RPMI 8226.
# [2] = Pharmacokinetics (plasma concentration, half-life, tissue absorption); conditions: after administration
# [3] = system: multi-drug resistant ovarian cancer cell line (NCI/ADR-RES) xenografts; assay: NCI/ADR-RES xenograft efficacy studies in nude mice; type: in vivo; conditions: DOXIL 7 mg/kg i.v. + RTI-79 25 mg/kg oral
# Source text: In a sixth efficacy study, we generated xenografts of multi-drug resistant ovarian cancer cell line (NCI/ADR-RES) by implantation of NCI/ADR-RES cell xenografts in the left and right flanks of nude mice, resulting in two tumors per mice. […] Tumor size was monitored.
# In a seventh efficacy study, we generated xenografts of multi-drug resistant ovarian cancer cell line (NCI/ADR-RES) by implantation of NCI/ADR-RES cells xenografts in the left and right flanks of nude mice, resulting in two tumors per mouse. […] Tumor size was monitored.
# [4] = system: CHOP-resistant G3 NHL cells; assay: Cell growth assay (resazurin fluorescence) on G3 cells; type: cell-based, human; conditions: for Magnitude of potentiation in combination with doxorubicin: G3; for IC50: Homo sapiens
# Procedure: Compositions were tested on CHOP-resistant G3 NHL cells that had been cultivated in RPMI medium for five days. Prior to assay, the cells were counted by haemocytometer and cell concentration standardized to 625,000 cells/ml. Test drugs were solubilized in 100% DMSO and then diluted to final assay concentration with 0.1M phosphate buffered saline (PBS) and a final DMSO concentration of 0.5%. […] The metabolic dye rezasurin was added to the wells of the assay plate at a final concentration of 20 μg/ml and the plates were incubated for an additional 24 hours. The plates were then read in a BMG Polarstar plate reader at wavelength (573-605) and the data plotted as OD versus increasing dilutions (i.e., decreasing total amounts) of rifabutin derivative concentration.
# as §1, with “OVCAR-3. […]” for “OVCAR-3.”
# [5] = system: multi-drug resistant ovarian carcinoma cell line SK-OV3; assay: Cell growth assay on SK-OV3 cells; type: cell-based, human
# Source text: as §1, with “OVCAR-3. […]” for “OVCAR-3.”
# [6] = system: primary human fibroblasts; assay: Comparative cytotoxicity on primary human fibroblasts; conditions: FIG. 3A and 3B
# [7] = system: multi-drug resistant ovarian cancer cell line OVCAR-3; assay: Cell growth assay on OVCAR-3 cells; type: cell-based
# Source text: as §1, §2
# [8] = system: multi-drug resistant ovarian cancer cell line NCI/ADR-RES; assay: Cell growth assay on NCI/ADR-RES cells; type: cell-based
# Source text: as §1, §2
# [9] = system: drug-sensitive ovarian cancer cell line OVCAR-5; assay: Cell growth assay on OVCAR-5 cells; type: cell-based
# Source text: as §1, §2
# [10] = mice treated with RTI-79 with or without DOX
# Procedure: Swiss mice were dosed with levels equal to and exceeding that of intended doses.
# total intracellular ROS = assay: Intracellular ROS by CellROX staining and flow cytometry; type: cell-based; conditions: for Induction of ROS: OVCAR8, ADR-RES and G3 cells, 2 hrs, 10 uM, FIG. 38
# Source text: Cells were then stained with the fluorescent ROS indicator, CellROX, and subjected to flow cytometry to quantitate total intracellular ROS.
# The electron transport chain (ETC) is known to be a primary generator of ROS in the cell. Most of the ROS is generated by Complexes I and III of the ETC. Inhibition of Complex I results in electrons piling up and leaking to react with oxygen to produce ROS.
# (§3) MDR/P-gp activity is closely associated with calcium status in the cell, so calcium modulators were tested for effects on ROS. […] Relatively Dox-sensitive lymphoma (CRL2631, 10S, WSU) and ovarian carcinoma (OVCAR8) and more Dox-resistant lymphoma (G3R, 10R, WSUR) and ovarian carcinoma (ADR) were treated with 10 uM […] for 2 hrs. […] Cells were co-stained with the cell-permeable red fluorescent ROS indicator, CellROX, and cell-permeable green fluorescent calcium indicator. Fluo-4AM, and then subjected to flow cytometry to quantitate changes in ROS and calcium levels.
# (§4) All samples were analyzed at the same time in flow cytometry.
# VEGF = VEGF secretion ELISA in U2-OS cells; type: cell-based; conditions: RTI-79
# calcium mobilization = assay: Calcium mobilization by Fluo-4AM staining and flow cytometry; type: cell-based
# Procedure: as §3, §4
# [11] = system: multi-drug resistant sarcoma cell line MES-SA-Dx5; assay: Cell growth assay on MES-SA-Dx5 cells; type: cell-based
# Source text: as §1, §2
# MMP2 = MMP2 secretion ELISA in U2-OS cells; type: cell-based; conditions: 5 uM RTI-79
# [12] = system: T lymphoblastoid leukemia MOLT-4; assay: Cell growth assay on MOLT-4 cells; type: cell-based; conditions: with Rifabutin vs drug alone
# Source text: as §2
Compound,Magnitude of potentiation in combination with doxorubicin [4],Magnitude of potentiation in combination with doxorubicin [5],Toxicity to normal cells [6],Magnitude of potentiation in combination with doxorubicin [7],Magnitude of potentiation in combination with doxorubicin [8],Magnitude of potentiation in combination with doxorubicin [9],Induction of ROS (total intracellular ROS),Magnitude of potentiation in combination with doxorubicin [11],also measured
"4-deoxy-3,4[2-spiro-[1-(isobutyloxycarbonyl)-piperidin-4-yl]]-(1H)-imidazo-(2,5-dihydro)rifamycin S [RTI-79]",++ (++ potentiation between 2.1 to 5 fold increase),+++ (+++ potentiation greater than 5 fold increase),not toxic,+ (+ potentiation between 1.2 to 2.0 fold increase),++ (++ potentiation between 2.1 to 5 fold increase),+ (+ potentiation between 1.2 to 2.0 fold increase),induced ROS,++ (++ potentiation between 2.1 to 5 fold increase),"Magnitude of potentiation in combination with doxorubicin [1]: + (+ potentiation between 1.2 to 2.0 fold increase); Time to maximal plasma concentration [2]: ≤ 3 h; Tumor volume lower than in mice receiving only DOXIL ([3]; seventh study, after 46 days): 55%; Tumor volume reduction during the course of the study ([3]; seventh study): 50%; Tumor volume lower than in mice receiving only DOXIL ([3]; sixth study, after 41 days): 66%; Heart tissue histology (H&E) and complete blood count and manual differential [10]: no significant differences; Time after exposure at which increases in ROS were seen (total intracellular ROS; G3 cells, 10 uM RTI-79): 1 min; VEGF secretion (VEGF): 436 pg/million cells; Time of treatment before calcium mobilization occurred (calcium mobilization; G3 cells, 10 uM RTI-79): > 15 min; MMP2 secretion (MMP2): 10.5 ng/million cells"
"11-deoxy-11-amino-4-deoxy-3,4[2-spiro-[1-(isobutyloxycarbonyl)-piperidin-4-yl]]-(1H)-imidazo-(2,5-dihydro)rifamycin S [RTI-176]",+++ (+++ potentiation greater than 5 fold increase),+++ (+++ potentiation greater than 5 fold increase),not toxic,–,–,+ (+ potentiation between 1.2 to 2.0 fold increase),–,–,Fold increase in potency over DOX alone ([4]; lymphoma cell line G3): 5.2 fold
"Cc1c2oc3c(C)ccc(C(=O)N[C@@H]4C(=O)N[C@H](C(C)C)C(=O)N5CCC[C@H]5C(=O)N(C)CC(=O)N(C)[C@@H](C(C)C)C(=O)O[C@@H]4C)c3nc-2c(C(=O)N[C@@H]2C(=O)N[C@H](C(C)C)C(=O)N3CCC[C@H]3C(=O)N(C)CC(=O)N(C)[C@@H](C(C)C)C(=O)O[C@@H]2C)c(N)c1=O [Actinomycin D, actinomycin D, reference compound] (I: T[dV]P[Sar][NMeV] / II: T[dV]P[Sar][NMeV]; ester I:1-I:C, II:1-II:C; linker I:N-II:N via Actinocin(9to1))",–,–,–,–,–,–,–,–,Fold increase in potency [12]: >5 fold; Fold increase in potency ([11]; with Rifabutin vs drug alone): 3 fold
"CO[C@H]1/C=C/O[C@@]2(C)Oc3c(C)c(O)c4c(c3C2O)C2=NC3(CCN(C(=O)OCC(C)C)CC3)NC2=C(NC(=O)/C(C)=C\C=C\[C@H](C)[C@H](O)[C@@H](C)[C@@H](O)[C@@H](C)[C@H](OC(C)=O)[C@@H]1C)C4=O (stereo partly drawn) [RTI-175, 11-deoxy-11-hydroxy-4-deoxy-3,4[2-spiro-[1-(isobutyloxycarbonyl)-piperidin-4-yl]]-(1H)-imidazo-(2,5-dihydro)rifamycin S]",++ (++ potentiation between 2.1 to 5 fold increase),+++ (+++ potentiation greater than 5 fold increase),–,+ (+ potentiation between 1.2 to 2.0 fold increase),++ (++ potentiation between 2.1 to 5 fold increase),++ (++ potentiation between 2.1 to 5 fold increase),–,+ (+ potentiation between 1.2 to 2.0 fold increase),IC50 [4]: > 64 µM; IC50 ([4]; read-out: IC50 (μM) with doxorubicin (1 μM)): 1.06 µM
COc1cc2c(cc1OC)CN(CCc1ccc(NC(=O)c3cccc4c(=O)c5cccc(OC)c5[nH]c34)cc1)CC2 [elacridar],–,–,–,–,–,–,induced ROS,–,"Induction of ROS relative to control drugs (total intracellular ROS; ADR and OVCAR8 cells, FIG. 41A): induced ROS; Induction of calcium (calcium mobilization; FIG. 41B): induced calcium"
